The values that follow come from US9340505B2, “Type III secretion inhibitors, analogs and uses thereof” (priority 2007, dated 2016).

“Also recorded” adds a separate entry of the source. Read-outs that look alike come from different tables or passages of the source.

One series deals with bacterial T3S. To be noted: cited from earlier work.
Series [1] has as its system T3S mediated cytotoxic response of HeLa cells infected by Y. pestis.
The test system of the next series is YopE-B1a secretion. In words: microbe, parasite or virus in culture. In kind it is cell-based, Y. pestis. To be noted: for IC50 / inhibition at 60 µM: Yersinia pestis.
The test system of a further series is YopH secretion. In kind it is cell-based, Y. pestis.
The test system of the next series is HeLa cells. Nature of the series: Cytotoxicity of compounds, Lactate Dehydrogenase (LDH) assay. To be noted: 60 μM.
For series [2], the system named is YopE-B1a translocation to HeLa cells. Nature of the series: cells. The series is classed as cell-based, Y. pestis.
The next series has as its system secretion of Yops. The series is classed as cell-based, Y. pestis.
The test system of another series is Y. pestis. In kind it is cell-based.
The next series has as its system Y. pestis JG401. In kind it is cell-based.
Another series relates to T3S. To be noted: read-out: IC50 as T3S inhibitor in Y. pseudotuberculosis; cited from earlier work.
Setting [3] is: read-out: IC50 (μM) of YopE secretion, round 3 lead 1 analogs.
Where [4] appears, read: read-out: IC50 of YopE secretion (Table 13).
Setting [5] is: read-out: Mean Inhibition (%) (3rd round compound 3 analogs).

With `CCCCCCCCC[C@H](CCCCCCCC(C)=O)O[C@@H]1O[C@H](CO)[C@@H](O)[C@H](O)[C@H]1O[C@@H]1O[C@H](CO[C@@H]2O[C@H](C)[C@H](O)[C@H](O)[C@@H]2O)[C@@H](OC(C)=O)[C@H](OC(=O)CCC)[C@H]1O[C@@H]1O[C@@H](C)[C@H](O)[C@@H](O)[C@@H]1O` [Caminoside A], in the series with bacterial T3S, the “activity in screen for bacterial T3S inhibitors” value is listed as “potent activity”.

For the molecule `Cl.O=C(Nc1cccc(Cl)c1)Nc1cccc(C2=NCCN2)c1` [Compound 1, 1-(3-chlorophenyl)-3-(3-(4,5-dihydro-1H-imidazol-2-yl)phenyl) urea hydrochloride], the “inhibition of T3S mediated cytotoxic response (morphological change)” value in series [1] was “inhibited the cytotoxic response”. A word on the IC50: it is the point on the concentration scale where inhibition reaches its midpoint. Take `Cc1ccc(CSc2nc(C(=O)O)ccc2C#N)cc1` [Compound 1, 2-Pyridinecarboxylic acid, 5-cyano-6-[[(4-methylphenyl)methyl]thio]-]: the 50% inhibitory concentration (IC50) in the series with YopE-B1a secretion (setting [3]) is less than 15 µM; with YopE-B1a secretion (setting [4]) it was more than 60 µM. On to `Oc1ccc(Oc2ccc(O)cc2)cc1` [Compound 2-3], for which, in the series on YopH secretion, the “activity against YopH secretion (in words)” value is recorded as “showed activity” and the “concentration dependent T3S inhibition (in words)” value was “retained inhibitory activity”. Besides, in the series on HeLa cells, the “cytotoxicity of analogs to HeLa cells (in words)” value is given as “significant decrease in cytotoxicity; also recorded: overcame the cytotoxicity”.

As for `Nc1cc(Oc2ccc(O)c(N)c2)ccc1O` [Compound 2-4], the “cytotoxicity of analogs to HeLa cells (in words)” value with HeLa cells is reported as “significant decrease in cytotoxicity”. What is called inhibition is the drop in the measured response relative to a control, in per cent. As for `CCC(=O)O.CCC(=O)O.O=C(Nc1cccc(C2=NCCN2)c1)Nc1cccc(C2=NCCN2)c1` [Compound 3 dipropionate, propanoic acid, compd. with N,N′-bis[3-(4,5-dihydro-1H-imidazol-2-yl)phenyl]urea (2:1)], in series [2] (80 μM), the “inhibition of YopE-B1a translocation (in words)” value is “completely inhibited”. The inhibition at 40 µM in series [2] (Yersinia pestis, HeLa, 40 μM) was 50%.

Consider `Cl.N#Cc1cccc(NC(=O)Nc2cccc(C3=NCCN3)c2)c1` [Compound 3], for which, in series [1], the “inhibition of T3S mediated cytotoxic response (morphological change)” value is given as “inhibited the cytotoxic response”. Still for that read-out and setting: the value for `CC(=O)c1ccc(NC(=O)Nc2cccc(C3=NCCN3)c2)cc1.Cl` [Compound 4, 1-(4-acetylphenyl)-3-(3-(4,5-dihydro-1H-imidazol-2-yl)phenyl)urea hydrochloride] was “inhibited the cytotoxic response”.

With `Cc1ccc(-c2nn(-c3ccccc3)cc2C2CC(c3cccs3)=NN2C(=O)CCC(=O)O)cc1` (centres unmarked) [Compound 4-5], the “activity against YopH secretion (in words)” value in the series on YopH secretion is given as “showed activity”. With `Cc1ccc(-c2nn(-c3ccccc3)cc2C2CC(c3ccccc3)=NN2C(=O)CCC(=O)O)cc1` (centres unmarked) [Compound 4-6], the “activity against YopH secretion (in words)” value in the series with YopH secretion is “showed activity”. As to `O=C(N/N=C/c1cc(Br)cc(Br)c1O)c1ccc([N+](=O)[O-])cc1` [INP0007], the “inhibition of secretion of Yops (in words)” value with secretion of Yops is recorded as “inhibited secretion of Yops”. Besides, the “inhibition of Y. pestis growth” value in the series on Y. pestis is “completely inhibited”. The “promotion of Y. pestis growth at 37° C. in the absence of Ca2+” value in the series with Y. pestis JG401 was “did not promote the growth”. Also, in the series on T3S, the IC50 is 50 µM.

On to `N#Cc1ccc(C(=O)O)nc1SCc1ccc(Cl)cc1` [MC1_1-1, 6-(4-chlorobenzylthio)-5-cyanopicolinic acid], for which the IC50 in the series with YopE-B1a secretion (setting [4]) stood at 20 µM.

Take `N#Cc1ccc(C(=O)O)nc1SCc1ccccc1` [MC1_1-2, 6-(benzylthio)-5-cyanopicolinic acid]: the half-maximal inhibitory concentration (IC50) with YopE-B1a secretion (setting [4]) is 60 µM. On the same count and under the same terms, under `COc1ccc(CSc2nc(C(=O)O)ccc2C#N)cc1` [MC1_1-3, 5-cyano-6-(4-methoxybenzylthio) picolinic acid] stands more than 60 µM; under `N#Cc1ccc(C(=O)O)nc1SCc1cccc([N+](=O)[O-])c1` [MC1_1-4, 5-cyano-6-(3-nitrobenzylthio) picolinic acid], more than 60 µM; under `N#Cc1ccc(C(=O)O)nc1SCc1ccccc1Cl` [MC1_1-5, 6-(2-chlorobenzylthio)-5-cyanopicolinic acid], not below 60 µM.

For `N#Cc1ccc(C(=O)O)nc1SCc1ccc(C(F)(F)F)cc1` [MC1_1-8], the half-maximal inhibitory concentration (IC50) in the series on YopE-B1a secretion (setting [4]) came out at 55 µM. As to `N#Cc1ccc(C(=O)O)nc1SCc1ccc(OC(F)(F)F)cc1` [MC1_1-9, 5-cyano-6-(4-(trifluoromethoxy)benzylthio) picolinic acid], the IC50 with YopE-B1a secretion (setting [4]) was determined as 30 µM. Regarding `N#Cc1ccc(C(=O)O)nc1Sc1ccc(Cl)cc1` [MC1_2-3, 6-(4-chlorophenylthio)-5-cyanopicolinic acid], the 50% inhibitory concentration (IC50) in the series on YopE-B1a secretion (read-out: IC50 (μM) of YopE secretion, 2nd round compound 1 analogs) was less than 15 µM. Also, the inhibition at 60 µM is 95.9% in the series with YopE-B1a secretion (60 μM, read-out: Mean Inhibition (%) of YopE-B1a secretion (Table 14)) and approximately 95% in the series on YopE-B1a secretion (60 μM, read-out: inhibition on YopE-B1a secretion). For `CNC(=O)c1ccc(C#N)c(SCc2ccc(Cl)cc2)n1` [MC1_3-1], the “inhibitory activity on YopE-B1a secretion (in words)” value (from here on “inhibitory activity”) in the series with YopE-B1a secretion is on record as “showed inhibitory activity”. The IC50 in the series on YopE-B1a secretion (setting [3]) was less than 15 µM.

Consider `COC(=O)c1ccc(C#N)c(SCc2ccc(Cl)cc2)n1` [MC1_3-2], for which, in the series with YopE-B1a secretion, the “inhibitory activity” value was “showed inhibitory activity”. The IC50 in the series with YopE-B1a secretion (setting [3]) worked out at 20 ± 5 µM. `N#Cc1ccc(C(N)=O)nc1SCc1ccc(Cl)cc1` [MC1_3-3]: in the series with YopE-B1a secretion, the “inhibitory activity” value is given as “showed inhibitory activity”. Also, in the series on YopE-B1a secretion (setting [3]), the half-maximal inhibitory concentration (IC50) came to 50 ± 5 µM. On to `O=C(Nc1cccc(C2=NCCN2)c1)Nc1cccc([N+](=O)[O-])c1` [MC3_1-2], for which, in the series on YopH secretion, the “activity against YopH secretion (in words)” value is given as “showed inhibition” and the “concentration dependent T3S inhibition (in words)” value is “concentration dependent inhibitory activities”. Take `N#Cc1cccc(NC(=O)Nc2cccc(C3=NCCN3)c2)c1` [MC3_1-3]: the “concentration dependent T3S inhibition (in words)” value with YopH secretion was “concentration dependent inhibitory activities”.

In the case of `O=C(Nc1cccc(C2=NCCN2)c1)Nc1cccc(C(F)(F)F)c1` [MC3_1-9], the “concentration dependent T3S inhibition (in words)” value with YopH secretion is reported as “concentration dependent inhibitory activities”.

With `O=C(Nc1cccc(Br)c1)Nc1cccc(C2=NCCN2)c1` [MC3_1-10], the “concentration dependent T3S inhibition (in words)” value with YopH secretion is “concentration dependent inhibitory activities”. As to `O=C(Nc1cccc(Cl)c1)Nc1cccc(C2=NCCN2)c1` [MC3_1-16], the “concentration dependent T3S inhibition (in words)” value in the series on YopH secretion was “concentration dependent inhibitory activities”. In the case of `FC(F)(F)c1cc(Nc2nc3cc(C4=NCCN4)ccc3o2)ccc1Cl` [MC3_3-1], in the series with YopE-B1a secretion (setting [5]), the inhibition at 60 µM was determined as 69.8%. As to `FC(F)(F)c1cc(Nc2nc3cc(C4=NCCCN4)ccc3o2)ccc1Cl` [MC3_3-2], the inhibition at 60 µM in the series on YopE-B1a secretion (setting [5]) came to 49%.

On to `FC(F)(F)c1cc(Nc2nc3ccc(C4=NCCN4)cc3o2)ccc1Cl` [MC3_3-3], for which the inhibition at 60 µM in the series on YopE-B1a secretion (setting [5]) amounted to 103%.

Regarding `FC(F)(F)c1cc(Nc2nc3ccc(C4=NCCN4)cc3[nH]2)ccc1Cl` [MC3_3-4], the inhibition at 60 µM with YopE-B1a secretion (setting [5]) came out at 0%.
